The values that follow come from patent publication US20250034216A1, “STEREOSELECTIVE COVALENT LIGANDS FOR ONCOGENIC AND IMMUNOLOGICAL PROTEINS” (The Scripps Research Institute, priority 2021, published 2025).

What all share (test): IA-DTB cysteine engagement
Common to all, as to type: binding
Details in all cases: 22Rv1 cells, 20 μM probe, 1 h, relative to DMSO

The target of one test is T1, CYP27B1_C163 (Homo sapiens, UniProt O15528).
T1 construct: endogenous in cells; host or cells: 22Rv1
T1 sequence (O15528 1-508): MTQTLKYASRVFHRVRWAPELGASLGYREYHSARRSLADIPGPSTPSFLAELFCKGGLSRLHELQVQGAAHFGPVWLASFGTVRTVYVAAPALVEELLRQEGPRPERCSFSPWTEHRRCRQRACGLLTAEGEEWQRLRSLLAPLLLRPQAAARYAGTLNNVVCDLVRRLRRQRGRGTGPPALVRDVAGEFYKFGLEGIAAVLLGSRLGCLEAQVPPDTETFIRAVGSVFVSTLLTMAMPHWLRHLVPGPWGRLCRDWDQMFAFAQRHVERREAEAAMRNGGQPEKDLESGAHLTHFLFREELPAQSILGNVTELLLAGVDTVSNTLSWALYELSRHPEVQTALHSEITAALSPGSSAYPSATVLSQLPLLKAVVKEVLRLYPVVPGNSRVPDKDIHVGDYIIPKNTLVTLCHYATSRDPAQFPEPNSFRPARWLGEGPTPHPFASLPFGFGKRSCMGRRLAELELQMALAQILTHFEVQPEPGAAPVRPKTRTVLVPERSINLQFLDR
The gist of the method: (§1)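 In-situ probe treatment of cells; lysate 2 mg/mL, IA-DTB 1 h RT; MeOH/CHCl3 precipitation, DTT/iodoacetamide, trypsin; streptavidin enrichment; TMT labeling, high-pH fractionation. Ratio = TMT reporter intensity / mean DMSO channels, median-normalized.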

For the next test, the target named is T2, GPAT4_C325 (Homo sapiens, UniProt Q86UL3).
T2 construct: endogenous in cells; host or cells: 22Rv1
T2 sequence (Q86UL3 38-456): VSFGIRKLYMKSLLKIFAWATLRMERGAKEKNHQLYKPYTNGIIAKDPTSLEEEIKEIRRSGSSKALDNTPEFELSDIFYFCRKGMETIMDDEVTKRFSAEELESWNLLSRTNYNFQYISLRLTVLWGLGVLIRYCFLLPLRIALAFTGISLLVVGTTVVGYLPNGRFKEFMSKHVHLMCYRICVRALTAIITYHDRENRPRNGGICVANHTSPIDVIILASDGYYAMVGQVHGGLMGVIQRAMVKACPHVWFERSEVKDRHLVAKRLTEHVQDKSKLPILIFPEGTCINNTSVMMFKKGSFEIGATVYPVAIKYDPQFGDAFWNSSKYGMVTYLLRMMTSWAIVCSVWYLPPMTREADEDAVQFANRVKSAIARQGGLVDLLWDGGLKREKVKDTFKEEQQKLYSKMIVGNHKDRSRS
The gist of the method: as §1

The target in a further test is T3, RETSAT_C547 (Homo sapiens, UniProt Q6NUM9).
T3 construct: endogenous in cells; host or cells: 22Rv1
T3 sequence (Q6NUM9 19-610): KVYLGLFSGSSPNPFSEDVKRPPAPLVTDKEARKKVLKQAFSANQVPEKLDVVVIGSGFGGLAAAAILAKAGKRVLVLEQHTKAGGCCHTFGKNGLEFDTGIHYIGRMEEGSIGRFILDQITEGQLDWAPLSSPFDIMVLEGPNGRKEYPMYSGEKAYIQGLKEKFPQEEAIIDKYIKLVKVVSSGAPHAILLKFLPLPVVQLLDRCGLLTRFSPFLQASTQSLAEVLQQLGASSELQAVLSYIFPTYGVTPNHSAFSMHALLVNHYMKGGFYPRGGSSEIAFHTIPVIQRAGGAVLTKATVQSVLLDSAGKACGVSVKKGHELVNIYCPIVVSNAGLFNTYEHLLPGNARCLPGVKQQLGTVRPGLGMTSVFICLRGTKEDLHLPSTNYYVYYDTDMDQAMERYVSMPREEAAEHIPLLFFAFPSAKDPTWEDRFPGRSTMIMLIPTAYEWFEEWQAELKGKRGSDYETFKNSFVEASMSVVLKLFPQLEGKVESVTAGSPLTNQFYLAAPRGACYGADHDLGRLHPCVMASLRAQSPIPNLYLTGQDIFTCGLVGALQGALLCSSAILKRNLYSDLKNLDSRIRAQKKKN
In short, it runs like this:
as §1

With `C=CC(=O)N1C[C@H](c2ccc(Br)cc2)[C@@H]1C(=O)Nc1cccc2cccnc12` [MY-1B, (2R,3S)-1-acryloyl-3-(4-bromophenyl)-N-(quinolin-8-yl)azetidine-2-carboxamide], the “% engagement CYP27B1_C163” value at CYP27B1_C163 turned out to be 89%. Besides, the “% engagement GPAT4_C325” value at GPAT4_C325 is 80%. For the same compound, the “% engagement RETSAT_C547” value at RETSAT_C547 stood at 66.75%.
In the case of `C=CC(=O)N1C[C@H](c2ccc(Br)cc2)[C@H]1C(=O)Nc1cccc2cccnc12` [MY-3B, (2S,3S)-1-acryloyl-3-(4-bromophenyl)-N-(quinolin-8-yl)azetidine-2-carboxamide], the “% engagement CYP27B1_C163” value at CYP27B1_C163 was 100%. In addition, the “% engagement GPAT4_C325” value on GPAT4_C325 is listed as 93.75%. The “% engagement RETSAT_C547” value on RETSAT_C547 is 71.25%.
For `C=CC(=O)N1C[C@H](c2ccc(Br)cc2)[C@H]1C(=O)Nc1cccc2cccnc12` [MY-3A, (2S,3S)-1-acryloyl-3-(4-bromophenyl)-N-(quinolin-8-yl)azetidine-2-carboxamide], in that order: 73.5%, 67.25% and 53.5%.
With `C=CC(=O)N1C[C@@H](c2ccc(Br)cc2)[C@H]1C(=O)Nc1cccc2cccnc12` [MY-1A, (2S,3R)-1-acryloyl-3-(4-bromophenyl)-N-(quinolin-8-yl)azetidine-2-carboxamide], the “% engagement CYP27B1_C163” value at CYP27B1_C163 is recorded as 73%. Also, at GPAT4_C325, the “% engagement GPAT4_C325” value was 83.25%. The “% engagement RETSAT_C547” value at RETSAT_C547 amounted to 80%.
